Measurements taken from USRE38117E1, “Trioxane dimer compound having antiproliferative and antitumor activities” (Hauser, Inc., priority 1995, dated 2003).

What was measured:
Assay type in all cases: cell-based
SR = assay: NCI 60 cell line screen (SRB), Leukemia
BT-549 = assay: NCI 60 cell line screen (SRB), Breast Cancer; conditions: BT-549 (Breast Cancer)
COLO 205 = assay: NCI 60 cell line screen (SRB), Colon Cancer; conditions: COLO 205 (Colon Cancer)
SNB-19 = assay: NCI 60 cell line screen (SRB), CNS Cancer; conditions: SNB-19 (CNS Cancer)
HCT-116 = assay: NCI 60 cell line screen (SRB), Colon Cancer; conditions: HCT-116 (Colon Cancer)
K-562 = assay: NCI 60 cell line screen (SRB), Leukemia; conditions: K-562 (Leukemia)
HT29 = assay: NCI 60 cell line screen (SRB), Colon Cancer
EKVX = assay: NCI 60 cell line screen (SRB), Non-Small Cell Lung Cancer
SN12C = assay: NCI 60 cell line screen (SRB), Renal Cancer
SK-MEL-5 = assay: NCI 60 cell line screen (SRB), Melanoma; conditions: SK-MEL-5 (Melanoma)
786-0 = assay: NCI 60 cell line screen (SRB), Renal Cancer; conditions: 786-0 (Renal Cancer)
SW-620 = assay: NCI 60 cell line screen (SRB), Colon Cancer; conditions: SW-620 (Colon Cancer)
PC-3 = assay: NCI 60 cell line screen (SRB), Prostate Cancer; conditions: PC-3 (Prostate Cancer)
HCC-2998 = assay: NCI 60 cell line screen (SRB), Colon Cancer; conditions: HCC-2998 (Colon Cancer)
MOLT-4 = assay: NCI 60 cell line screen (SRB), Leukemia; conditions: for drug concentration necessary to achieve primary growth inhibition (percentage growth +50): MOLT-4, read from dose response curves FIGS. 10a-10e
HS 578T = assay: NCI 60 cell line screen (SRB), Breast Cancer; conditions: HS 578T (Breast Cancer)
NCI-H460 = assay: NCI 60 cell line screen (SRB), Non-Small Cell Lung Cancer
MCF7 = assay: NCI 60 cell line screen (SRB), Breast Cancer
SK-MEL-2 = assay: NCI 60 cell line screen (SRB), Melanoma; conditions: SK-MEL-2 (Melanoma)
KM12 = assay: NCI 60 cell line screen (SRB), Colon Cancer
OVCAR-4 = assay: NCI 60 cell line screen (SRB), Ovarian Cancer; conditions: OVCAR-4 (Ovarian Cancer)
NCI-H322M = assay: NCI 60 cell line screen (SRB), Non-Small Cell Lung Cancer
NCI-H522 = assay: as above
MDA-MB-435 = assay: NCI 60 cell line screen (SRB), Breast Cancer; conditions: MDA-MB-435 (Breast Cancer)

Question: Which results are given for `C[C@@H]1CC[C@H]2[C@@H](C)C(=O)O[C@@H]3O[C@@]4(C)CC[C@@H]1[C@]32OO4` [QHS, 3,6,9-trimethyl-9,10b-epidioxyperhydropyrano[4,3,2-jk]benzoxepin-2-one, reference compound]?
Answer: Log10GI50 (SR): >−4.00 M; Log10LC50 (SR): >−4.00 M; Log10TGI (SR): >−4.00 M; Log10GI50 (BT-549): −4.06 M; Log10LC50 (BT-549): >−4.00 M; Log10TGI (BT-549): −4.00 M; Log10GI50 (COLO 205): >−4.00 M; Log10LC50 (COLO 205): >−4.00 M; Log10TGI (COLO 205): >−4.00 M; Log10GI50 (SNB-19): >−4.00 M; Log10LC50 (SNB-19): >−4.00 M; Log10TGI (SNB-19): >−4.00 M; Log10GI50 (HCT-116): −4.00 M; Log10LC50 (HCT-116): >−4.00 M; Log10TGI (HCT-116): >−4.00 M; Log10GI50 (K-562): −4.33 M; Log10LC50 (K-562): >−4.00 M; Log10TGI (K-562): −4.00 M; Log10GI50 (HT29): >−4.00 M; Log10LC50 (HT29): >−4.00 M; Log10TGI (HT29): >−4.00 M; Log10GI50 (EKVX): >−4.00 M; Log10LC50 (EKVX): >−4.00 M; Log10TGI (EKVX): >−4.00 M; Log10GI50 (SN12C): −4.21 M; Log10LC50 (SN12C): >−4.00 M; Log10TGI (SN12C): >−4.00 M; Log10GI50 (SK-MEL-5): −4.10 M; Log10LC50 (SK-MEL-5): >−4.00 M; Log10TGI (SK-MEL-5): >−4.00 M; Log10GI50 (786-0): >−4.00 M; Log10LC50 (786-0): >−4.00 M; Log10TGI (786-0): >−4.00 M; Log10GI50 (SW-620): >−4.00 M; Log10LC50 (SW-620): >−4.00 M; Log10TGI (SW-620): >−4.00 M; Log10GI50 (PC-3): −4.17 M; Log10LC50 (PC-3): >−4.00 M; Log10TGI (PC-3): >−4.00 M; Log10GI50 (HCC-2998): >−4.00 M; Log10LC50 (HCC-2998): >−4.00 M; Log10TGI (HCC-2998): >−4.00 M; Log10GI50 (MOLT-4; MOLT-4 (Leukemia)): −4.73 M; drug concentration necessary to achieve primary growth inhibition (percentage growth +50) (MOLT-4): greater than 10^−4 molar; Log10GI50 (HS 578T): >−4.00 M; Log10LC50 (HS 578T): >−4.00 M; Log10TGI (HS 578T): >−4.00 M; Log10GI50 (NCI-H460): >−4.00 M; Log10LC50 (NCI-H460): >−4.00 M; Log10TGI (NCI-H460): >−4.00 M; Log10GI50 (MCF7): >−4.00 M; Log10LC50 (MCF7): >−4.00 M; Log10TGI (MCF7): >−4.00 M; Log10LC50 (SK-MEL-2): >−4.00 M; Log10TGI (SK-MEL-2): >−4.00 M; Log10GI50 (KM12): >−4.00 M; Log10LC50 (KM12): >−4.00 M; Log10TGI (KM12): >−4.00 M

Question: With `CC(=O)O[C@H]1C(=O)[C@@]2(C)[C@H]([C@H](OC(=O)c3ccccc3)[C@]3(O)C[C@H](OC(=O)[C@H](O)[C@@H](NC(=O)c4ccccc4)c4ccccc4)C(C)=C1C3(C)C)[C@]1(OC(C)=O)CO[C@@H]1C[C@@H]2O` [Paclitaxel, paclitaxel, reference compound] as the compound, how does the Log10LC50 (SR) read?
Answer: >−4.00 M

Question: What about the Log10TGI (SR) of the same compound?
Answer: >−4.00 M

Question: And the Log10GI50 (BT-549)?
Answer: −9.31 M

Question: What about the Log10LC50 (BT-549) of the same compound?
Answer: >−4.00 M

Question: What about the Log10TGI (BT-549) of the same compound?
Answer: −6.32 M

Question: What about the Log10GI50 (COLO 205) of the same compound?
Answer: −11.07 M

Question: What about the Log10LC50 (COLO 205) of the same compound?
Answer: >−4.41 M

Question: And the Log10GI50 (SNB-19)?
Answer: −8.98 M

Question: And the Log10LC50 (SNB-19)?
Answer: >−4.00 M

Question: And the Log10TGI (SNB-19)?
Answer: >−4.00 M

Question: What about the Log10GI50 (HCT-116) of the same compound?
Answer: <−13.00 M

Question: And the Log10LC50 (HCT-116)?
Answer: >−4.00 M

Question: What about the Log10TGI (HCT-116) of the same compound?
Answer: −4.82 M

Question: And the Log10GI50 (OVCAR-4)?
Answer: −5.00 M

Question: And the Log10LC50 (OVCAR-4)?
Answer: >−4.00 M

Question: And the Log10TGI (OVCAR-4)?
Answer: −4.19 M

Question: What about the Log10GI50 (K-562) of the same compound?
Answer: −10.83 M

Question: And the Log10LC50 (K-562)?
Answer: >−4.00 M

Question: And the Log10TGI (K-562)?
Answer: >−4.00 M

Question: And the Log10GI50 (HT29)?
Answer: <−13.00 M

Question: What about the Log10LC50 (HT29) of the same compound?
Answer: −4.39 M

Question: What about the Log10GI50 (SN12C) of the same compound?
Answer: −9.53 M

Question: And the Log10LC50 (SN12C)?
Answer: >−4.00 M

Question: And the Log10GI50 (786-0)?
Answer: −8.01 M

Question: What about the Log10LC50 (786-0) of the same compound?
Answer: >−4.00 M

Question: And the Log10TGI (786-0)?
Answer: >−4.00 M

Question: What about the Log10GI50 (NCI-H322M) of the same compound?
Answer: −10.12 M

Question: And the Log10LC50 (NCI-H322M)?
Answer: >−4.00 M

Question: What about the Log10TGI (NCI-H322M) of the same compound?
Answer: −4.46 M

Question: And the Log10GI50 (SW-620)?
Answer: −11.60 M

Question: What about the Log10LC50 (SW-620) of the same compound?
Answer: >−4.00 M

Question: What about the Log10TGI (SW-620) of the same compound?
Answer: >−4.00 M

Question: And the Log10GI50 (NCI-H522)?
Answer: >−13.00 M

Question: And the Log10LC50 (NCI-H522)?
Answer: >−4.00 M

Question: What about the Log10TGI (NCI-H522) of the same compound?
Answer: −11.20 M

Question: What about the Log10GI50 (PC-3) of the same compound?
Answer: −10.85 M

Question: What about the Log10LC50 (PC-3) of the same compound?
Answer: >−4.00 M

Question: And the Log10TGI (PC-3)?
Answer: >−4.00 M

Question: And the Log10GI50 (MDA-MB-435)?
Answer: <−13.00 M

Question: What about the Log10GI50 (HCC-2998) of the same compound?
Answer: −12.34 M

Question: What about the Log10LC50 (HCC-2998) of the same compound?
Answer: −4.26 M

Question: What about the Log10TGI (HCC-2998) of the same compound?
Answer: −4.77 M

Question: What about the Log10GI50 (MOLT-4; MOLT-4 (Leukemia)) of the same compound?
Answer: −11.07 M

Question: And the Log10LC50 (MOLT-4; MOLT-4 (Leukemia))?
Answer: >−4.00 M

Question: And the Log10TGI (MOLT-4; MOLT-4 (Leukemia))?
Answer: >−4.00 M

Question: And the “drug concentration necessary to achieve primary growth inhibition (percentage growth +50)” value (MOLT-4)?
Answer: less than 10^−8 molar

Question: And the Log10GI50 (NCI-H460)?
Answer: −12.16 M

Question: What about the Log10LC50 (NCI-H460) of the same compound?
Answer: >−4.00 M

Question: And the Log10TGI (NCI-H460)?
Answer: −4.92 M

Question: And the Log10GI50 (MCF7)?
Answer: −11.69 M

Question: And the Log10LC50 (MCF7)?
Answer: >−4.00 M

Question: What about the Log10GI50 (SK-MEL-2) of the same compound?
Answer: −9.53 M

Question: What about the Log10LC50 (SK-MEL-2) of the same compound?
Answer: >−4.00 M

Question: And the Log10GI50 (KM12)?
Answer: −11.43 M

Question: What about the Log10LC50 (KM12) of the same compound?
Answer: >−4.00 M

Question: What about the Log10TGI (KM12) of the same compound?
Answer: −4.36 M
